{"source": "patent US20260363251A1", "about": "(priority 2022, published 2026)", "key": {"[1]": {"test_system": "Pyricularia oryzae", "format": "in vivo", "conditions": "1 d preventive, 400 L/ha"}, "[2]": {"test_system": "Rhizoctonia solani", "test": "Treatment of sheath blight on rice (Table 11)", "conditions": "1 d preventive, 400 L/ha"}, "[3]": {"test_system": "Fusarium culmorum", "test": "Seed treatment, soilborne Fusarium culmorum in wheat under semi-field conditions (Example 4.1B)", "format": "in vivo", "conditions": "Celest FS025, 5 g ai per 100 kg seeds; plant emergence vs infected control"}, "[4]": {"test": "Solubility in water or DMSO"}, "[5]": {"test_system": "Aphanomyces cochlioides", "test": "Seed treatment, soilborne Aphanomyces cochlioides in sugar beet in the greenhouse (Example 4.3)", "format": "in vivo, Aphanomyces cochlioides strain K-9164", "conditions": "Tachigaren WS070; damping off vs infected control"}, "[6]": {"conditions": "dmso, organic solvent or mixture"}}, "note": "Where two headings read alike, the source gives them in different places. Numbered stars: 1 amine (or outer) side, 2 acyl side, 3 side chain; on linkers, the order of the positions; unused ones are H or OH. Bridge positions count the residues as written; N and C are the ends. Square brackets hold non-standard residues; d marks the D form. Peptide text beside a SMILES is read from it. * marks the point of attachment. Tridecanoyl(12-Me) = CC(C)CCCCCCCCCCC(=O)*; X1 = NC(=O)CC(O)C(N[*:1])C(=O)[*:2]; NMeF = CN[CH](Cc1ccccc1)C(=O)O; NMeN = CN[CH](CC(N)=O)C(=O)O; X2 = CCC(C)CCCCCCCCCCC(=O)*"}
{"smiles": "CO/C=C(/C(=O)OC)c1ccccc1Oc1cc(Oc2ccccc2C#N)ncn1", "note": "[Azoxystrobin]", "values": [{"measurement": "disease symptom reduction (%) vs. Untreated", "setting": "[1]; 3 g/ha", "result": 92, "unit": "%"}, {"measurement": "disease symptom reduction (%) vs. Untreated", "setting": "[1]; 9 g/ha", "result": 85, "unit": "%"}, {"measurement": "disease symptom reduction (%) vs. Untreated", "setting": "[1]; 28 g/ha", "result": 96, "unit": "%"}, {"measurement": "disease symptom reduction (%) vs. Untreated", "setting": "[1]; 83 g/ha", "result": 92, "unit": "%"}, {"measurement": "disease symptom reduction (%) vs. Untreated", "setting": "[2]; 3 g/ha", "result": 62, "unit": "%"}, {"measurement": "disease symptom reduction (%) vs. Untreated", "setting": "[2]; 9 g/ha", "result": 86, "unit": "%"}, {"measurement": "disease symptom reduction (%) vs. Untreated", "setting": "[2]; 28 g/ha", "result": 81, "unit": "%"}, {"measurement": "disease symptom reduction (%) vs. Untreated", "setting": "[2]; 83 g/ha", "result": 86, "unit": "%"}]}
{"smiles": "N#Cc1c[nH]cc1-c1cccc2c1OC(F)(F)O2", "note": "[Fludioxonil]", "values": [{"measurement": "activity (%)", "setting": "[3]", "result": 93, "unit": "%"}]}
{"smiles": "CC(C)CCCCCCCCCCC(=O)NC1C(=O)NC(CC(=O)O)C(=O)NC(C(O)CC(N)=O)C(=O)NC(CO)C(=O)N(C)C(CC(N)=O)C(=O)N(C)C(Cc2ccccc2)C(=O)NC(CCC(N)=O)C(=O)NC(CCC(=O)O)C(=O)OC1C", "note": "(stereo not drawn) [Formula II (a) Lipopeptide 1204] ({Tridecanoyl(12-Me)}-TD[X1]S[NMeN][NMeF]QE; ester 1-C; configuration not given here)", "values": [{"measurement": "solubility", "setting": "[4]; [6]", "result": "> 10000", "unit": "µg/mL"}, {"measurement": "solubility", "setting": "[4]; water, pH 2.08, water", "result": 21.4, "unit": "µg/mL"}]}
{"smiles": "CCC(C)CCCCCCCCCCC(=O)NC1C(=O)NC(CC(=O)O)C(=O)NC(C(O)CC(N)=O)C(=O)NC(CO)C(=O)N(C)C(CC(N)=O)C(=O)N(C)C(Cc2ccccc2)C(=O)NC(CCC(N)=O)C(=O)NC(CCC(=O)O)C(=O)OC1C", "note": "(stereo not drawn) [Formula II (b) Lipopeptide 1218] (X2-TD[X1]S[NMeN][NMeF]QE; ester 1-C; configuration not given here)", "values": [{"measurement": "solubility", "setting": "[4]; [6]", "result": "> 10000", "unit": "µg/mL"}]}
{"smiles": "Cc1cc(O)no1", "note": "[Hymexazol]", "values": [{"measurement": "activity (%)", "setting": "[5]", "result": 74, "unit": "%"}]}
{"smiles": "CCCC1COC(Cn2cncn2)(c2ccc(Cl)cc2Cl)O1", "note": "(stereo not drawn) [Propiconazole]", "values": [{"measurement": "disease symptom reduction (%) vs. Untreated", "setting": "[1]; 5 g/ha", "result": 17, "unit": "%"}, {"measurement": "disease symptom reduction (%) vs. Untreated", "setting": "[1]; 14 g/ha", "result": 38, "unit": "%"}, {"measurement": "disease symptom reduction (%) vs. Untreated", "setting": "[1]; 42 g/ha", "result": 79, "unit": "%"}, {"measurement": "disease symptom reduction (%) vs. Untreated", "setting": "[1]; 125 g/ha", "result": 92, "unit": "%"}]}
{"smiles": "CC(=O)NC1C(OCC(OC2OC(CO)C(O)C(O)C2O)C2OC(OC3C(O)C(CO)OC(OC4(CO)OC(C(O)CO)C(O)C4OC4OC(CO)C(O)C(O)C4O)C3O)C(O)C(O)C2OC2OC(C(O)CO)C(O)C(O)C2OC2OCC(OC(N)=O)C(O)C2O)OC(CO)C(O)C1O", "note": "(stereo not drawn) [compound I]", "values": [{"measurement": "solubility", "setting": "[4]; [6]", "result": "> 9770", "unit": "µg/mL"}]}
